Source: publication PMC11129182, “Development of Inhibitors, Probes, and PROTAC Provides a Complete Toolbox to Study PARK7 in the Living Cell” (Journal of Medicinal Chemistry, 2024)
Read-outs that look alike come from different tables or passages of the source.

Experiments:
PARK7 [1] = target: T1, PARK7 (Homo sapiens, UniProt Q99497); experiment: High-throughput screen of the crude compound library, PARK7 fluorescence polarization (FP) assay with FP reagent JYQ-107; assay type: biochemical; details: for inhibition at 1.25 µM: read-out: HTS FP assay %Inhibition (1.25 µM)
T1 sequence (Q99497 1-189): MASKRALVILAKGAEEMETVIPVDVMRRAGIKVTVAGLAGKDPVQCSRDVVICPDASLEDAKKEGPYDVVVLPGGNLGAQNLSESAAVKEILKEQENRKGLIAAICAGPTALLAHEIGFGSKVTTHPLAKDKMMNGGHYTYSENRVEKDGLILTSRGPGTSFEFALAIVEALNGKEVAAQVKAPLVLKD

PARK7 [2] = target: T1, PARK7; experiment: Hit validation and pure-compound testing in the PARK7 FP assay with JYQ-107; assay type: biochemical; details: for inhibition at 0.25 µM: read-out: % Inhibition 0.25 µM; for inhibition at 0.5 µM: read-out: % Inhibition 0.5 µM
[3] = 1.25 µM, crude compound library
[4] = 1.25 µM, crude compound library, FP reagent JYQ-107

Row | inhibition at 1.25 µM (PARK7 [1]; [3]) | inhibition at 0.25 µM (PARK7 [2]; crude compounds, 0.25 µM) | inhibition at 0.5 µM (PARK7 [2]; crude compounds) | inhibition at 1 µM (PARK7 [2]; crude compounds, 1 µM) | inhibition at 1.25 µM (PARK7 [1]; [4]) | Compound | other results
1 |  |  |  |  | 81.8% | N#CN1CC[C@@H](C(=O)Nc2nc3c(s2)CN(C(=O)CC2C(=O)Nc4ccccc42)CC3)C1 (some centres unmarked) [compound 465] | 
2 |  |  |  |  | 58.5% | CC(=O)C(=O)N1CCc2nc(NC(=O)[C@@H]3CCN(C#N)C3)sc2C1 [compound 466] | 
3 |  |  |  |  | 67.9% | COCC(=O)N1CCc2nc(NC(=O)[C@@H]3CCN(C#N)C3)sc2C1 [compound 467] | 
4 |  |  |  |  | 76% | Cc1ncc(C(=O)N2CCc3nc(NC(=O)[C@@H]4CCN(C#N)C4)sc3C2)s1 [compound 469] | 
5 |  |  |  |  | 78.4% | N#CN1CC[C@@H](C(=O)Nc2nc3c(s2)CN(C(=O)c2ccc4c(c2)OCO4)CC3)C1 [compound 470] | 
6 |  |  |  |  | 80% | N#CN1CC[C@@H](C(=O)Nc2nc3c(s2)CN(C(=O)c2ccc4c(c2)ncn4C2CCCCO2)CC3)C1 (some centres unmarked) [compound 471] | 
7 |  |  |  |  | 70.8% | CN1CCN(c2ccc(C(=O)N3CCc4nc(NC(=O)[C@@H]5CCN(C#N)C5)sc4C3)cc2)CC1 [compound 472] | 
8 |  |  |  |  | 72.4% | N#CN1CC[C@@H](C(=O)Nc2nc3c(s2)CN(C(=O)c2ccc(N4CCOCC4)cc2)CC3)C1 [compound 473] | 
9 |  |  |  |  | 72.5% | CN1CCC(C(=O)N2CCc3nc(NC(=O)[C@@H]4CCN(C#N)C4)sc3C2)CC1 [compound 474] | 
10 |  |  |  |  | 68.5% | CC(=O)N1CCC(C(=O)N2CCc3nc(NC(=O)[C@@H]4CCN(C#N)C4)sc3C2)CC1 [compound 475] | 
11 |  |  |  |  | 70.3% | N#CN1CC[C@@H](C(=O)Nc2nc3c(s2)CN(C(=O)C2CCN(c4ncccn4)CC2)CC3)C1 [compound 476] | 

Second part, the compound before the results:

Row | Compound | inhibition at 1.25 µM (PARK7 [1]; [3]) | inhibition at 0.25 µM (PARK7 [2]; crude compounds, 0.25 µM) | inhibition at 0.5 µM (PARK7 [2]; crude compounds) | inhibition at 1 µM (PARK7 [2]; crude compounds, 1 µM) | inhibition at 1.25 µM (PARK7 [1]; [4]) | other results
12 | N#CN1CC[C@@H](C(=O)Nc2nc3c(s2)CN(C(=O)c2cccc(S(=O)(=O)NCc4cccs4)c2)CC3)C1 [Compound 11] | 90% | 49.3% | 77.9% | 93.6% |  | 
13 | N#CN1CC[C@@H](C(=O)Nc2nc3c(s2)CN(C(=O)c2cc(-n4ccnc4)ccn2)CC3)C1 [Compound 22] | 90.7% | 52.2% | 81% | 96% |  | 
14 | N#CN1CC[C@@H](C(=O)Nc2nc3c(s2)CN(C(=O)c2cn(C4CCC4)nn2)CC3)C1 [Compound 30] | 89.2% | 52.3% | 75.7% | 93.6% |  | 
15 | N#CN1CC[C@@H](C(=O)Nc2nc3c(s2)CN(C(=O)c2cccc(S(=O)(=O)NC4CC4)c2)CC3)C1 [Compound 59, (R)-1-Cyano-N-(5-(3-(N-cyclopropylsulfamoyl)benzoyl)-4,5,6,7-tetrahydrothiazolo[5,4-c]pyridin-2-yl)pyrrolidine-3-carboxamide] | 89.7% | 63.1% | 84.4% | 97.5% |  | inhibition at 0.25 µM (PARK7 [2]; pure compounds, 0.25 µM): 74.8%; inhibition at 1 µM (PARK7 [2]; pure compounds, 1 µM): 93.6%
16 | N#CN1CC[C@@H](C(=O)Nc2nc3c(s2)CN(C(=O)c2cc(-c4ccc(Cl)s4)[nH]n2)CC3)C1 [Compound 64] | 90% | 33.1% | 63.2% | 89.5% |  | 
17 | N#CN1CC[C@@H](C(=O)Nc2nc3c(s2)CN(C(=O)c2cn(CCc4ccccc4)nn2)CC3)C1 [Compound 76] | 91.3% | 54.4% | 78% | 92.1% |  | 
18 | CCC1(Cn2cc(C(=O)N3CCc4nc(NC(=O)[C@@H]5CCN(C#N)C5)sc4C3)nn2)COC1 [Compound 83] | 92.3% | 47.6% | 73.1% | 92.7% |  | 
19 | N#CN1CC[C@@H](C(=O)Nc2nc3c(s2)CN(C(=O)c2cccc(COc4cccc(F)c4)c2)CC3)C1 [Compound 110] | 94% | 56.4% | 78.2% | 93.5% |  | 
20 | Cc1nc(-c2cnn(C)c2)sc1C(=O)N1CCc2nc(NC(=O)[C@@H]3CCN(C#N)C3)sc2C1 [Compound 112] | 91.1% | 54.6% | 78% | 93.1% |  | 
21 | Cc1ccc(-c2cc(C(=O)N3CCc4nc(NC(=O)[C@@H]5CCN(C#N)C5)sc4C3)[nH]n2)o1 [Compound 121] | 90.5% | 52% | 77.6% | 93.8% |  | 
22 | N#CN1CC[C@@H](C(=O)Nc2nc3c(s2)CN(C(=O)c2cccc(-c4ncn[nH]4)c2)CC3)C1 [Compound 131] | 91% | 66.1% | 84.3% | 96.9% |  | 
23 | COc1ccc(C(=O)N2CCc3nc(NC(=O)[C@@H]4CCN(C#N)C4)sc3C2)cc1S(=O)(=O)N1CCCCCC1 [Compound 133, (R)-N-(5-(3-(Azepan-1-ylsulfonyl)-4-methoxybenzoyl)-4,5,6,7-tetrahydrothiazolo[5,4-c]pyridin-2-yl)-1-cyanopyrrolidine-3-carboxamid] | 90.8% | 76.3% | 89.1% | 98.8% |  | inhibition at 0.25 µM (PARK7 [2]; pure compounds, 0.25 µM): 77.9%; inhibition at 1 µM (PARK7 [2]; pure compounds, 1 µM): 95.4%
24 | N#CN1CC[C@@H](C(=O)Nc2nc3c(s2)CN(C(=O)c2cc(-c4ccco4)on2)CC3)C1 [Compound 139] | 91.5% | 58.2% | 80.9% | 94.3% |  | 
25 | N#CN1CC[C@@H](C(=O)Nc2nc3c(s2)CN(C(=O)c2ccc(Cn4cc(Br)cn4)o2)CC3)C1 [Compound 140] | 90.7% | 36.9% | 62.1% | 85.7% |  | 
26 | N#CN1CC[C@@H](C(=O)Nc2nc3c(s2)CN(C(=O)c2cc(S(=O)(=O)NCCCN4CCCC4=O)ccc2Cl)CC3)C1 [Compound 146] | 89.7% | 45% | 70.4% | 90.7% |  | 
27 | CC(C)c1nc(Cn2cc(C(=O)N3CCc4nc(NC(=O)[C@@H]5CCN(C#N)C5)sc4C3)ccc2=O)cs1 [Compound 149] | 93.2% | 42.9% | 69.6% | 89.6% |  | 
28 | N#CN1CC[C@@H](C(=O)Nc2nc3c(s2)CN(C(=O)c2csc(C4CC4)n2)CC3)C1 [Compound 152] | 92.4% | 45.4% | 67.6% | 89.3% |  | 
29 | N#CN1CC[C@@H](C(=O)Nc2nc3c(s2)CN(C(=O)CN2CCOCC2)CC3)C1 [compound 461] |  |  |  |  | 72.7% | 
30 | N#CN1CC[C@@H](C(=O)Nc2nc3c(s2)CN(C(=O)C2CC(=O)NC(=O)N2)CC3)C1 (some centres unmarked) [compound 462] |  |  |  |  | 60.1% | 
31 | CN1CCN(CC(=O)N2CCc3nc(NC(=O)[C@@H]4CCN(C#N)C4)sc3C2)CC1 [compound 463] |  |  |  |  | 67.3% | 
32 | N#CN1CC[C@@H](C(=O)Nc2nc3c(s2)CN(C(=O)C2CC2)CC3)C1 [compound 464] |  |  |  |  | 78.9% | 
33 | N#CN1CC[C@@H](C(=O)Nc2nc3c(s2)CN(C(=O)c2cnccn2)CC3)C1 [compound 468] |  |  |  |  |  | HTS FP assay %Inhibition (1.25 µM) (PARK7 [1]; [4]): 76.5%; % Inhibition (PARK7 [1]; HTS of crude compound library, sheet "SMILES+%Inh HTS"): 76.5%
34 | (R)-1-Cyano-N-(5-(4-hydroxybenzoyl)-4,5,6,7-tetrahydrothiazolo[5,4-c]pyridin-2-yl)pyrrolidine-3-carboxamide [Compound 3] |  |  |  |  |  | % Inhibition 0.25 µM (PARK7 [2]; pure compounds, 0.25 µM): 58.4%; % Inhibition 1 µM (PARK7 [2]; pure compounds, 1 µM): 90.1%; potency in FP assay compared to JYQ-88 (PARK7 [2]; pure compounds, 0.25 and 1 μM): slight improvement in potency compared to JYQ-88
